Experimental data published in patent publication EP4741386A1 (Jiangsu Yahong Meditech Co., Ltd., priority 2023, dated 2025).
pIC50: −log10 of the molar value.

target: T1, Recombinant human His6-USP1/His6-UAF1 complex protein (Homo sapiens, UniProt O94782); assay: In vitro inhibitory activity against USP1 (Ubiquitin Rhodamine 110 fluorescence detection, 384-well plate); type: biochemical; conditions: Ub-Rho substrate, 1 hour pre-incubation, read after 30 minutes
T1 construct: His6; purchased R&D E-568-050
T1 sequence (O94782 whole entry): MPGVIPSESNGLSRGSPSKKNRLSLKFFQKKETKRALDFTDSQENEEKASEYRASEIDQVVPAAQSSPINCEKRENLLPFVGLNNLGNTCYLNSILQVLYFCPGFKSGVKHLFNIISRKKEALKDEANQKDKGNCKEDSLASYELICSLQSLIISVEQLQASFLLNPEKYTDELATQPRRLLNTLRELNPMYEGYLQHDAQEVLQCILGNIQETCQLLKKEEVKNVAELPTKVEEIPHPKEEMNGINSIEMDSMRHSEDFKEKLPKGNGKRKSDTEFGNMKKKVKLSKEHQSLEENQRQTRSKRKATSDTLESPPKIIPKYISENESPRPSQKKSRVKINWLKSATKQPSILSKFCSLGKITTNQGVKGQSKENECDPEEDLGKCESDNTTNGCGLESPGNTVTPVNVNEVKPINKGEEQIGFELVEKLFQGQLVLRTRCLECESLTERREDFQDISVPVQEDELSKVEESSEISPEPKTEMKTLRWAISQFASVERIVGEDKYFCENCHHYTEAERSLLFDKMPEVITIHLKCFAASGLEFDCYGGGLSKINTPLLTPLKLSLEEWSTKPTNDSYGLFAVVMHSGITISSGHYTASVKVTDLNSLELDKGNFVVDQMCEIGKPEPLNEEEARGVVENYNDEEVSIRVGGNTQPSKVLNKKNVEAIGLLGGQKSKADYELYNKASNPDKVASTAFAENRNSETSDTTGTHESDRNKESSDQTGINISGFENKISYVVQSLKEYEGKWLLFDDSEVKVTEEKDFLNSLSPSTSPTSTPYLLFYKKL
T1 sequence (Q8TAF3 whole entry partner): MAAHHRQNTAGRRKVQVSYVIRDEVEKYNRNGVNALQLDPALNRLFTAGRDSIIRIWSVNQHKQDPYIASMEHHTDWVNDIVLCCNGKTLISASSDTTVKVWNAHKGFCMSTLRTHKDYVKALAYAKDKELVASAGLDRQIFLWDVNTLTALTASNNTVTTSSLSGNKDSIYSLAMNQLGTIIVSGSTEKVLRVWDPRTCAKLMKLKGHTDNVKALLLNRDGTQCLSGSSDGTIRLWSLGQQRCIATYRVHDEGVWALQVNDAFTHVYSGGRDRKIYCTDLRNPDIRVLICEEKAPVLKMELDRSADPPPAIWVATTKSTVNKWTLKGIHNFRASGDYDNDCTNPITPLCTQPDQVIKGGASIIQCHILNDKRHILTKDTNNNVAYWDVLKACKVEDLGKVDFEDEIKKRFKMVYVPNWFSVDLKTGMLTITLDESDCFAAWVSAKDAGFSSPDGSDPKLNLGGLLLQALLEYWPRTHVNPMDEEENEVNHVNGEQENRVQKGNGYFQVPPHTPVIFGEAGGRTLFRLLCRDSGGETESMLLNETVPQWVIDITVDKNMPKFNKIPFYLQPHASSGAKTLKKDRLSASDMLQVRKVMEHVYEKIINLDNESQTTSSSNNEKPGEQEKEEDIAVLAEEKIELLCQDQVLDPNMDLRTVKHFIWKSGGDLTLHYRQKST
Method: Test Example 1: In vitro inhibitory activity against USP1 […]
Experimental object: to screen compounds with inhibitory activity against USP1 […] by a fluorescence detection method, using a 384-well plate.
Experimental materials: Recombinant human His6-USP1/His6-UAF1 complex protein (R&D, Cat. No.: E-568-050), Ubiquitin Rhodamine 110 protein (Ub-Rho) (R&D, Cat. No.: U-555-050), 384-well plate (Perkin Elmer, Cat. No.: 6007279); all compounds were dissolved in 100% DMSO to obtain 50 mM stock solutions.
• 1) Preparation of 1 × assay buffer: 1 × assay buffer (modified Tris buffer) was prepared; • 2) Dilution of compounds: the compounds were transferred to an assay plate via Echo.

Row | SMILES | pIC50
1 | CCOCCOc1ccc(CNc2nc(-c3ccccc3C(C)C)nc3ccoc23)cc1 [Example 79, N-(4-(2-Ethoxyethoxy)benzyl)-2-(2-isopropylphenyl)furo[3,2-d]pyrimidin-4-amine] | 8.35
2 | COc1cnc(-c2cncnc2C2CC2)nc1NCc1ccc(-c2nc(C(F)F)cn2C)cc1 [Example 195, 4'-Cyclopropyl-N-(4-(4-(difluoromethyl)-1-methyl-1H-imidazol-2-yl)benzyl)-5-methoxy-[2,5'-bipyrimidin]-4-amine] | 6.61
3 | COc1cnc(-c2c(OC)ncnc2C2CC2)nc1N(C)CC12CCC(c3nc(C(F)(F)F)cn3C)(CC1)OC2 [Example 212, 4'-cyclopropyl-5,6'-dimethoxy-N-methyl-N-((1-(1-methyl-4-(trifluoromethyl)-1H-imidazol-2-yl)-2-oxabicyclo[2.2.2]octan-4-yl)methyl)-[2,5'-bipyrimidin]-4-amine] | 7.72
4 | COc1cnc(-c2cccc3ccn(C)c23)nc1NCc1ccc(-c2nc(C(F)(F)F)cn2C)cc1 [Example 143, 5-Methoxy-2-(1-methyl-1H-indol-7-yl)-N-(4-(1-methyl-4-(trifluoromethyl)-1H-imidazol-2-yl)benzyl)pyrimidin-4-amine] | 7.51
5 | COc1cnc(-c2c(C)ncnc2OC2CC2)nc1NCC12CCC(c3nc(C(F)(F)F)cn3C)(CC1)CC2 [Example S19] | 6.52
6 | COc1ncnc(C2CC2)c1-c1ncc2c(n1)N(Cc1ccc(-c3ccccn3)cc1)CCO2 [Example 9, 2-(4-Cyclopropyl-6-methoxypyrimidin-5-yl)-8-(4-(pyridin-2-yl)benzyl)-7,8-dihydro-6H-pyrimido[5,4-b][1,4]oxazine] | 7.46
7 | COc1cnc(-c2c(OC)ncnc2C2CC2)nc1N(Cc1ccc(-c2nc(C(F)(F)F)cn2C)cc1)C1CCOC1 (stereo not shown) [Example 140, 4'-Cyclopropyl-5,6'-dimethoxy-N-(4-(1-methyl-4-(trifluoromethyl)-1H-imidazol-2-yl)benzyl)-N-(tetrahydrofuran-3-yl)-[2,5'-bipyrimidin]-4-amine] | 7.14
8 | COc1cnc(-c2ccccc2C(C)C)nc1NCc1ccc2c(c1)CN(C1CCC(=O)NC1=O)C2=O (stereo not shown) [Example 41, 3-(5-(((2-(2-Isopropylphenyl)-5-methoxypyrimidin-4-yl)amino)methyl)-1-oxoisoindolin-2-yl)piperidine-2,6-dione] | 5.90
9 | COc1ncnc(C2CC2)c1-c1ncc2c(n1)N(CC1CCN(c3nc(C(F)(F)F)cn3C)CC1)C(=O)CO2 [Example 30, 2-(4-Cyclopropyl-6-methoxypyrimidin-5-yl)-8-((1-(1-methyl-4-(trifluoromethyl)-1H-imidazol-2-yl)piperidin-4-yl)methyl)-6H-pyrimido[5,4-b][1,4]oxazin-7(8H)-one] | 7.43
10 | COc1ncnc(C2CC2)c1-c1nc(NCc2ccc3c(c2)CCN(C)C3=O)c2occc2n1 [Example 114, 6-(((2-(4-Cyclopropyl-6-methoxypyrimidin-5-yl)furo[3,2-d]pyrimidin-4-yl)amino)methyl)-2-methyl-3,4-dihydroisoquinolin-1(2H)-one] | 6.19
11 | COc1cnc(-c2c(C)noc2C(C)C)nc1NCc1ccc(-c2nc(C(F)(F)F)cn2C)cc1 [Example 188, 2-(5-Isopropyl-3-methylisoxazol-4-yl)-5-methoxy-N-(4-(1-methyl-4-(trifluoromethyl)-1H-imidazol-2-vl)benzyl)pyrimidin-4-amine] | 7.82
12 | Cc1ncn(C(C)C)c1-c1nc(NCc2ccc(-c3nc(C(F)(F)F)cn3C)cc2)c2occc2n1 [Example 149, 2-(1-Isopropyl-4-methyl-1H-imidazol-5-yl)-N-(4-(1-methyl-4-(trifluoromethyl)-1H-imidazol-2-yl)benzyl)furo[3,2-d]pyrimidin-4-amine] | 7.16
13 | CC(C)c1ccccc1-c1ncc(N2CCOCC2)c(NCc2ccc(-c3nc(C(F)(F)F)cn3C)cc2)n1 [Example 87, 2-(2-Isopropylphenyl)-N-(4-(1-methyl-4-(trifluoromethyl)-1H-imidazol-2-yl)benzyl)-5-morpholinopyrimidin-4-amine] | 8.21
14 | COc1ncnc(C2CC2)c1-c1ncc2c(n1)N(CC1CCN(c3ccccn3)CC1)CCO2 [Example 10, 2-(4-Cyclopropyl-6-methoxypyrimidin-5-yl)-8-((1-(pyridin-2-yl)piperidin-4-yl)methyl)-7,8-dihydro-6H-pyrimido[5,4-b][1,4]oxazine] | 6.25
15 | COc1cnc(-c2c(OC)cnn2C2CC2)nc1NCC1CCN(c2nc(C(F)(F)F)cn2C)CC1 [Example 184, 2-(1-Cyclopropyl-4-methoxy-1H-pyrazol-5-yl)-5-methoxy-N-((1-(1-methyl-4-(trifluoromethyl)-1H-imidazol-2-yl)piperidin-4-yl)methyl)pyrimidin-4-amine] | 7.03
16 | COc1ncnc(C2CC2)c1-c1nc(NCc2ccc3c(c2)CCN(C(C)C)C3=O)c2occc2n1 [Example 115, 6-(((2-(4-Cyclopropyl-6-methoxypyrimidin-5-yl)furo[3,2-d]pyrimidin-4-yl)amino)methyl)-2-isopropyl-3,4-dihydroisoquinolin-1(2H)-one] | 7.11
17 | CC(C)c1ccccc1-c1ncc2c(n1)N(C[C@H]1CC[C@@H](c3nc(C(F)(F)F)cn3C)CC1)CCO2 [Example 14, 2-(2-Isopropylphenyl)-8-(((1s,4s)-4-(1-methyl-4-(trifluoromethyl)-1H-imidazol-2-yl)cyclohexyl)methyl)-7,8-dihydro-6H-pyrimido[5,4-b][1,4] oxazine] | 7.22
18 | COc1cnc(-c2c(OC)ncnc2C2CC2)nc1NCc1ccc2c(c1)CCN(C(C)C)C2=O [Example 97, 6-(((4'-Cyclopropyl-5,6'-dimethoxy-[2,5'-bipyrimidin]-4-yl)amino)methyl)-2-isopropyl-3,4-dihydroisoquinolin-1(2H)-one] | 6.58
19 | COc1cnc(-c2c(OC)cnn2C(C)C)nc1N(C)CC1CCN(c2ccccn2)CC1 [Example 177, 2-(1-Isopropyl-4-methoxy-1H-pyrazol-5-yl)-5-methoxy-N-methyl-N-((1-(pyridin-2-yl)piperidin-4-yl)methyl)pyrimidin-4-amine] | 7.12
20 | COc1ncnc(C2CC2)c1-c1ncc(OC(C)C)c(NCC23CCC(c4ccc(C(F)(F)F)cn4)(CC2)CC3)n1 [Example 112, 4'-Cyclopropyl-5-isopropoxy-6'-methoxy-N-((4-(5-(trifluoromethyl)pyridin-2-yl)bicyclo[2.2.2]octan-1-yl)methyl)-[2,5'-bipyrimidin]-4-amine] | 6.57
21 | [2H]C([2H])([2H])Oc1ncnc(C2CC2)c1-c1ncc(OC)c(N(C)CC23CCC(c4nc(C(F)(F)F)cn4C)(CC2)CC3)n1 [Example S9, 4'-Cyclopropyl-5-methoxy-6'-(methoxy-D3)-N-methyl-N-((4-(1-methyl-4-(trifluoromethyl)-1H-imidazol-2-yl)bicyclo[2.2.2]oct-1-yl)methyl)-[2,5'-bipyrimidin]-4-amine] | 8.46
22 | COc1cnc(-c2cncnc2C2CC2)nc1N(C)Cc1ccc(-c2nc(C(F)(F)F)cn2C)cc1 [Example 193, 4'-Cyclopropyl-5-methoxy-N-methyl-N-(4-(1-methyl-4-(trifluoromethyl)-1H-imidazol-2-yl)benzyl)-[2,5'-bipyrimidin]-4-amine] | 7.06
